The source of these data is PMC4552634, “A New Set of Chemical Starting Points with Plasmodium falciparum Transmission-Blocking Potential for Antimalarial Drug Discovery” (PLoS ONE, 2015).

Read-outs that look alike come from different tables or passages of the source.

By inhibition is commonly meant the drop in the measured response relative to a control, in per cent. The % Inhibition is the change of the read-out against control, counted positive when it falls. Higher therefore signals strong suppression.

The experiment concerns P. falciparum stage V gametocytes. As to the kind of experiment: microbe, parasite or virus in culture. On the set-up: BacTiter-Glo ATP luminescence viability of purified stage V gametocytes in 384-well plates, per cent inhibition versus DMSO.
The mark [1] stands for this setting: Plasmodium falciparum, 48 h, read-out: % Inhibition.
The mark [2] stands for this setting: Plasmodium falciparum, 48 h; read-out: % Inhibition.

As to `N#Cc1ccc(S(=O)(=O)N2C(c3cccc([N+](=O)[O-])c3)C(C(=O)c3ccccc3)N(C3CCCCC3)C2c2cccc([N+](=O)[O-])c2)cc1` (centres unmarked) [TCMDC-142230], the inhibition at 5 µM under setting [1] is 43.9%. Regarding `COc1ccc(C=NNc2c3ccccc3nc3ccccc23)c2ccccc12` [TCMDC-142231], the inhibition at 5 µM under setting [1] is -139%. In the case of `CCCCCC(C)C(C)c1cc(O)c2c(c1)OC1(C(C)C)CC(O)C(C)C2C1` (centres unmarked) [TCMDC-142232], under setting [2], the inhibition at 5 µM was determined as 44.6%.

Regarding `Cc1c(N=O)cc(C(C)(C)C)c(O)c1C(=O)Nc1ccc([N+](=O)[O-])cc1Cl` [TCMDC-142233], under setting [1], the inhibition at 5 µM turned out to be 32.7%. As for `COc1ccc2ccccc2c1C=NNc1cc(C)nc2c(C)cccc12` [TCMDC-142234], the inhibition at 5 µM under setting [1] worked out at 35.2%. Same read-out and setting: to `COc1ccc(C=NNc2ccnc3cc(F)c(C)cc23)c2ccccc12` [TCMDC-142235] belongs -8.9%; to `COc1ccc2c(NN=Cc3c(OC)ccc4ccccc34)cc(C)nc2c1` [TCMDC-142236], 103%; to `COc1ccc2ccccc2c1C=NNc1ccnc2ccc(F)cc12` [TCMDC-142237], -11.1%. For the molecule `COc1ccc2ccccc2c1C=NNc1cc(C)nc2cc(C(F)(F)F)ccc12` [TCMDC-142238], under setting [1], the inhibition at 5 µM was -35%. Consider `COc1ccc2c(NN=C(C)c3ccccn3)cc(C)nc2c1` [TCMDC-142239], for which the inhibition at 5 µM under setting [1] was found to be 103%.

With `CCOC(=O)c1cnc2c(OC)cc(OC)c(Cl)c2c1Nc1ccccc1` [TCMDC-142240], the inhibition at 5 µM under setting [1] was 44.8%. As to `CCOC(=O)c1cnc2c(OC)cc(OC)c(Cl)c2c1Nc1cccc(C)c1` [TCMDC-142241], the inhibition at 5 µM under setting [1] is -99.9%.

On to `CCOC(=O)c1cnc2c(OC)cc(OC)c(Cl)c2c1Nc1cccc(C)c1C` [TCMDC-142242], for which the inhibition at 5 µM under setting [1] is 64.1%. Still for that read-out and setting: to `CCCCc1ccc2[nH]cc(C(=O)OCC)c(=O)c2c1` [TCMDC-142243] belongs 33.5%. On to `CNCCc1c(O)ccc2ccccc12` [TCMDC-142244], for which the inhibition at 5 µM under setting [2] was -11.4%. `CN(C(=O)c1ccc(Br)cc1)c1ccccc1[N+](=O)[O-]` [TCMDC-142245]: the inhibition at 5 µM under setting [1] was -8%. On the same count and under the same terms, as for `CCCCCCc1cc(OC)c(OC)cc1C(C)Nc1ccnc2cc(Cl)ccc12` (centres unmarked) [TCMDC-142247], the figure is -55.2%; as for `CCCCCCN(CCCCCC)CC(O)c1c(OC)ccc2ccccc12` (centres unmarked) [TCMDC-142248], -34.9%; as for `Cc1ccccc1C1=CCN(CCCN2c3ccccc3Sc3ccc(Cl)cc32)CC1` [TCMDC-142249], 53.4%.

As for `COc1ccccc1-c1nc2nc(N)nc(N)c2nc1-c1ccccc1OC` [TCMDC-142250], the inhibition at 5 µM under setting [1] stood at 16.7%. `O=C(NC1c2ccccc2Oc2ccccc21)c1ccccc1O` [TCMDC-142251]: the inhibition at 5 µM under setting [1] turned out to be 3.63%. `CCCCCCC(C)(C)c1cc(O)c2c3c(c(=O)oc2c1)CCN(Cc1ccccc1)C3` [TCMDC-142252]: the inhibition at 5 µM under setting [2] is -7.75%. Same read-out and setting: to `CCCCCCC(C)(C)c1cc(O)c2c(c1)OC(C)(C)c1ccncc1-2` [TCMDC-142253] belongs 30.7%. Still for that read-out and setting: as for `CCCCCCC(C)c1cc(O)c2c(c1)OC(C)(C)c1ccncc1-2` (centres unmarked) [TCMDC-142254], the figure is 56.1%.

Turning to `CCCCCc1cc(O)c2c(c1)OC(C)(C)c1ccncc1-2` [TCMDC-142255], the inhibition at 5 µM under setting [2] is -24.7%.

With `CCCN(CCC)CCCOc1ccc(C(=O)c2c(-c3ccc(OCCCN(CCC)CCC)cc3)oc3ccc(Cl)cc23)cc1` [TCMDC-142256], under setting [1], the inhibition at 5 µM came out at 105%.

On to `CN(C)CCN1CCN(CCCN2c3ccccc3Sc3ccc(C(F)(F)F)cc32)CC1` [TCMDC-142257], for which the “% Inhibition” value (48 h, 5 µM; inhibitor) is listed as 92.65%. `CCCCCCC(CC)c1cc(O)c2c(c1)OC(C)(C)c1ccncc1-2` (centres unmarked) [TCMDC-142258]: under setting [2], the inhibition at 5 µM is -39.1%.

With `CCCCCCCc1cc(O)c2c(c1)OC(C)(C)c1ccncc1-2` [TCMDC-142259], the inhibition at 5 µM under setting [2] amounted to 6.2%. For the molecule `Cc1ccc(C2(O)CC3CCC(C2)N3C)cc1` (centres unmarked) [TCMDC-142260], the inhibition at 5 µM under setting [1] came out at 10.6%.

In the case of `CC1=CC(=O)[C@@H](O)[C@]2(C)[C@H]3[C@@]4(O)OC[C@@]35[C@@H](C[C@@H]12)OC(=O)C[C@H]5[C@@H](C)[C@H]4O` [TCMDC-142261], the inhibition at 5 µM under setting [2] worked out at 50.1%. Consider `CC(C)OC(=O)c1ccccc1S(N)(=O)=O` [TCMDC-142262], for which, under setting [1], the inhibition at 5 µM is -12.6%. Same read-out and setting: to `CCN(CC)CCCC(C)Nc1c(-c2ccc(Br)cc2)cnc2ccccc12` (centres unmarked) [TCMDC-142263] belongs 26%; to `CCN(CC)CCCC(C)Nc1c(-c2ccc(C)cc2)cnc2ccccc12` (centres unmarked) [TCMDC-142264], 25.6%. As to `CCN(CC)CCCC(C)Nc1c(-c2ccc(OC)cc2)cnc2ccccc12` (centres unmarked) [TCMDC-142265], the inhibition at 5 µM under setting [1] came to 36.6%. On the same count and under the same terms, to `Cc1ccc(O)cc1C[C@@H]1C(=O)CC[C@@]2(C)[C@H]1CC[C@]2(C)O` [TCMDC-142266] belongs -40.3%; to `c1ccc2c3c(ccc2c1)Sc1c(ccc2ccccc12)N3` [TCMDC-142267], -92.1%. Same read-out and setting: as for `CCCCN(CCCC)CC(O)c1cc(-c2ccc(Cl)cc2)nc2c(Cl)cc(Cl)cc12` (centres unmarked) [TCMDC-142268], the figure is -20.8%; as for `Fc1ccc(C2N=C(SCCSC3=NC(c4ccc(F)cc4)C(c4ccc(F)cc4)N3)NC2c2ccc(F)cc2)cc1` (centres unmarked) [TCMDC-142269], -7.65%. On the same count and under the same terms, to `C=CCN1Cc2c(O)cccc2C(c2ccc(O)c(O)c2)C1` (centres unmarked) [TCMDC-142270] belongs -127%; to `COc1ccc(C2CNCc3c2cc(OC)c(OC)c3Cl)cc1` (centres unmarked) [TCMDC-142271], 22.9%.

In the case of `COc1cc2c(cc1OC)C(c1ccc(Br)cc1)CN(C)CC2` (centres unmarked) [TCMDC-142272], under setting [1], the inhibition at 5 µM worked out at 20.3%. On the same count and under the same terms, to `COc1ccc(CSC2CCCCC23NC(=S)NC3=S)cc1` (centres unmarked) [TCMDC-142273] belongs 5.66%. In the case of `CCOC(=O)CCCN1C(=O)CN=C(c2ccccc2)c2cc(Cl)ccc21` [TCMDC-142274], the inhibition at 5 µM under setting [2] is -8.73%.

For `CCCC(C(=O)OCCNC)(c1ccccc1)c1ccccc1` [TCMDC-142275], the inhibition at 5 µM under setting [1] came out at 48.4%.

Take `CC(C)NCc1cc(Nc2ccnc3cc(Cl)ccc23)ccc1O` [TCMDC-142277]: under setting [1], the inhibition at 5 µM was -61.6%.

With `COc1ccc2nc3cc(Cl)ccc3c(Nc3ccc(O)c(CNC(C)C)c3)c2c1` [TCMDC-142278], the inhibition at 5 µM under setting [1] was found to be 57.9%. On to `CCCCN(CCCC)Cc1cc(Nc2ccnc3cc(Cl)ccc23)ccc1O` [TCMDC-142279], for which the inhibition at 5 µM under setting [1] was -8.89%. On the same count and under the same terms, to `COc1ccc(C=Cc2cc(N)c3ccccc3n2)cc1` [TCMDC-142280] belongs 97.9%; to `Nc1cc(-c2ccc3ccccc3c2)nc2ccccc12` [TCMDC-142281], 1.22%; to `Nc1c2c(nc3ccc(Oc4ccc(Cl)cc4)cc13)CCCC2` [TCMDC-142282], 92%. Same read-out and setting: to `CCN(CC)Cc1cc(NC(=O)c2ccccc2O)ccc1Oc1ccc(Cl)cc1` [TCMDC-142283] belongs -6.19%; to `Nc1c2c(nc3ccc(C(=O)Nc4ccccc4)cc13)CCCC2` [TCMDC-142284], 39.7%; to `COc1ccc(C=Cc2cc(N)c3ccccc3n2)cc1Br` [TCMDC-142285], 39.4%. The same measure, in the same setting: as for `Nc1c2c(nc3ccc(Oc4ccc(Br)cc4Br)cc13)CCCC2` [TCMDC-142286], the figure is 91.6%; as for `Nc1c2c(nc3ccc(C(=O)Nc4ccc(Br)cc4)cc13)CCCC2` [TCMDC-142287], 62.2%.
